From ChEMBL document CHEMBL1201862, “PubChem BioAssay data set” (2004)
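Grown in 96-well plates, cells were treated for 48 hours with each compound at five concentrations. Insufficient inhibition: endpoint recorded as highest concentration tested. GI50 = concentration required for 50% inhibition of growth.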 The source made the active and inactive calls. Rule as the data show it: active = GI50 up to about 1.1 µM and inactive = higher.

Experiments:
Experiment in all cases: inhibition of tumour cell growth, NCI panel, 48 h
RXF 631 = system: RXF 631
M19-MEL = system: M19-MEL
LXFL 529 = system: LXFL 529
DMS-114 = system: DMS-114
DLD-1 = system: DLD-1
XF498 = system: XF498
DMS-273 = system: DMS-273
HOP-18 = system: HOP-18

Measured: GI50

CC1=C(C(=O)Nc2cccc(C(F)(F)F)c2)C(c2ccc(O)cc2)C(C(=O)Nc2cccc(C(F)(F)F)c2)=C(C)N1
inactive: RXF 631 14.8 µM | M19-MEL 16.4 µM | LXFL 529 18.6 µM | DMS-114 14.8 µM | DLD-1 20.5 µM | XF498 2.61 µM

Cc1ccccc1-c1c(N)nc(NC#N)nc1C(=O)Nc1ccccc1
inactive: DMS-273 > 100 µM | RXF 631 > 100 µM | M19-MEL > 100 µM | LXFL 529 67.1 µM | HOP-18 > 100 µM | DMS-114 > 100 µM | DLD-1 > 100 µM

CCN1CCC(O)(/C=C/c2ccccc2)C(C(=O)/C=C/c2ccccc2)C1 (configuration not stated)
inactive: DMS-273 1.68 µM | RXF 631 4.1 µM | M19-MEL 1.99 µM | LXFL 529 1.87 µM | HOP-18 5.64 µM | DMS-114 2.08 µM | DLD-1 2.08 µM | XF498 5.65 µM

COC(=O)c1ccc2n[se]nc2c1
inactive: DMS-273 > 100 µM | RXF 631 > 100 µM | M19-MEL > 100 µM | LXFL 529 > 100 µM | HOP-18 > 100 µM | DMS-114 > 100 µM | DLD-1 > 100 µM | XF498 > 100 µM

COC(=O)c1ccc(/C=C/S(=O)(=O)c2ccccc2)cc1
inactive: DMS-273 > 100 µM | RXF 631 > 100 µM | M19-MEL > 100 µM | LXFL 529 > 100 µM | DMS-114 > 100 µM | DLD-1 > 100 µM | XF498 > 100 µM

Cc1ccc(C2[C@H]3C(=O)N(c4ccc(Cc5ccc(N6C(=O)[C@@H]7ON(c8ccccc8)C(c8ccc(C)cc8)[C@@H]7C6=O)cc5)cc4)C(=O)[C@H]3ON2c2ccccc2)cc1 (some centres not stated)
inactive: DMS-273 > 100 µM | M19-MEL > 100 µM | LXFL 529 > 100 µM | HOP-18 > 100 µM | DMS-114 > 100 µM | DLD-1 > 100 µM | XF498 > 100 µM

O=C1NC(=O)C(C(=O)C(=O)Nc2cc(Cl)ccc2Cl)C(=O)N1
inactive: RXF 631 > 100 µM | M19-MEL > 100 µM | LXFL 529 > 100 µM | DMS-114 > 100 µM | DLD-1 > 100 µM

COc1ccc(NC(=O)CC(=O)N/N=C/c2ccc(N(CCC#N)S(C)(=O)=O)cc2)cc1
inactive: DMS-273 > 100 µM | RXF 631 > 100 µM | M19-MEL > 100 µM | LXFL 529 > 100 µM | HOP-18 > 100 µM | DMS-114 > 100 µM | DLD-1 > 100 µM

c1cc2c(ncc3cscc32)s1
inactive: DMS-273 > 100 µM | RXF 631 > 100 µM | M19-MEL > 100 µM | LXFL 529 > 100 µM | DMS-114 > 100 µM | DLD-1 > 100 µM | XF498 > 100 µM

CC(=O)Nc1ccc(C2C(C(=O)Nc3ccccc3C)=C(C)NC(C)=C2C(=O)Nc2ccccc2C)cc1
inactive: DMS-273 > 100 µM | RXF 631 > 100 µM | M19-MEL > 100 µM | LXFL 529 > 100 µM | HOP-18 > 100 µM | DMS-114 > 100 µM | DLD-1 > 100 µM | XF498 > 100 µM

CCOC(=O)CCC(NC(=O)c1ccc(NCc2ccc3nc(-c4ccccc4)c(Cl)nc3c2)cc1)C(=O)OCC (configuration not stated)
inactive: DMS-273 21.4 µM | RXF 631 13.2 µM | M19-MEL 17.4 µM | LXFL 529 18.2 µM | DMS-114 22.4 µM | DLD-1 28.6 µM | XF498 1.58 µM

NC(=O)C(=O)N/N=C(\CC1(O)C(=O)Nc2ccccc21)c1ccc2ccccc2c1 (configuration not stated)
inactive: DMS-273 28.2 µM | M19-MEL 25.2 µM | LXFL 529 31.5 µM | HOP-18 46.3 µM | DMS-114 21.3 µM | DLD-1 37.8 µM | XF498 30.5 µM

O=C1c2ccccc2C(=O)N1CCN(CCN1C(=O)c2ccccc2C1=O)Cn1cccn1
inactive: DMS-273 46.1 µM | RXF 631 29 µM | M19-MEL 69.8 µM | LXFL 529 > 100 µM | DMS-114 19.5 µM | DLD-1 31.9 µM | XF498 > 100 µM

CCC1(CN(C)C)CC/C(=C\c2ccc3c(c2)OCO3)C1=O (configuration not stated)
inactive: DMS-273 > 100 µM | RXF 631 > 100 µM | M19-MEL > 100 µM | LXFL 529 > 100 µM | HOP-18 > 100 µM | DLD-1 82.2 µM
